Values joined by “and” are separate entries in the source; they are usually repeats but may differ in a detail not shown here. Identical values can stand only once. Like-named read-outs stand apart in the source and are kept apart here.
Key:
hM5 (CHRM5) = biological target: T1, hM5 (CHRM5) (Homo sapiens, UniProt P08912); test: GPCR cell-based functional assay, intracellular Ca2+ level, M5; conditions: for % Stimulation of control agonist response, hM5: agonist effect at 100 µM; for inhibition at 100 µM: antagonist effect at 100 µM, read-out: % Inhibition of control agonist response, hM5
T1 sequence (P08912 1-532): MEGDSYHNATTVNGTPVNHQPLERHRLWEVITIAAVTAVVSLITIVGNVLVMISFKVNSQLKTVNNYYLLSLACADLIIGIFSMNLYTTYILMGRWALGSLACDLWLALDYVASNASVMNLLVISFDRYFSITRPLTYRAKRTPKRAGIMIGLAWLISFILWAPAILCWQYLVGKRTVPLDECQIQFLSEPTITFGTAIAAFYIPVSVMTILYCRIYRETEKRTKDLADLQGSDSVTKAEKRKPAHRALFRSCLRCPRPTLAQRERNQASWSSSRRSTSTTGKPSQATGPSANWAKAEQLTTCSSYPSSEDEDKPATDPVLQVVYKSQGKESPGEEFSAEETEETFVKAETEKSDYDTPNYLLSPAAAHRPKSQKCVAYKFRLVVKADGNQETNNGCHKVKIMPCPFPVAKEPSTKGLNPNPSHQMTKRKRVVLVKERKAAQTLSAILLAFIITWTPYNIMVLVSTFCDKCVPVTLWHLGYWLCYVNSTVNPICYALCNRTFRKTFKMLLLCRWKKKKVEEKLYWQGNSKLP

hNK1 (TACR1) = hNK1 (TACR1) (Homo sapiens, UniProt P25103); test: GPCR cell-based functional assay, intracellular Ca2+ level, NK1; conditions: for % Stimulation of control agonist response, hNK1: agonist effect at 100 µM; for inhibition at 100 µM: antagonist effect at 100 µM, read-out: % Inhibition of control agonist response, hNK1
h5-HT1A (HTR1A) = biological target: T2, h5-HT1A (HTR1A) (Homo sapiens, UniProt P08908); test: GPCR cell-based functional assay, intracellular Ca2+ level, 5-HT1A; conditions: for % Stimulation of control agonist response, h5-HT1A: agonist effect at 100 µM; for inhibition at 100 µM: antagonist effect at 100 µM, read-out: % Inhibition of control agonist response, h5-HT1A
T2 sequence (P08908 1-422): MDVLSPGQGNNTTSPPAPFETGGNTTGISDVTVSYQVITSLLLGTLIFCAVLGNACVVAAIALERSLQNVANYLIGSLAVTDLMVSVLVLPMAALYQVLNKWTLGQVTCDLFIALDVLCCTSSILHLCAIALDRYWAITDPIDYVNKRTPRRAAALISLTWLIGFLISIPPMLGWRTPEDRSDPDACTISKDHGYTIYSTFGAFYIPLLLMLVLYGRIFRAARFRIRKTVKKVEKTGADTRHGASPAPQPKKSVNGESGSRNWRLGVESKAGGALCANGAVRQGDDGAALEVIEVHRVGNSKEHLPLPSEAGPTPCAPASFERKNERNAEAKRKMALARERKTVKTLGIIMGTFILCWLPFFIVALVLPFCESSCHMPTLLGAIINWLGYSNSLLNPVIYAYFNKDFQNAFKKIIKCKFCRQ

hV1A (AVPR1A) = hV1A (AVPR1A) (Homo sapiens, UniProt P37288); test: GPCR cell-based functional assay, intracellular Ca2+ level, V1A; conditions: for % Stimulation of control agonist response, hV1A: agonist effect at 100 µM; for inhibition at 100 µM: antagonist effect at 100 µM, read-out: % Inhibition of control agonist response, hV1A
hD1 (DRD1) [1] = biological target: T3, hD1 (DRD1) (Homo sapiens, UniProt P21728); conditions: agonist effect at 100 µM
hD3 (DRD3) [2] = biological target: T4, hD3 (DRD3) (Homo sapiens, UniProt P35462); conditions: agonist effect at 100 µM
hMAO-A [3] = biological target: T5, hMAO-A (Homo sapiens, UniProt P21397); design: method as in PMID 28251489; conditions: cited from earlier work
T5 sequence (P21397 1-527): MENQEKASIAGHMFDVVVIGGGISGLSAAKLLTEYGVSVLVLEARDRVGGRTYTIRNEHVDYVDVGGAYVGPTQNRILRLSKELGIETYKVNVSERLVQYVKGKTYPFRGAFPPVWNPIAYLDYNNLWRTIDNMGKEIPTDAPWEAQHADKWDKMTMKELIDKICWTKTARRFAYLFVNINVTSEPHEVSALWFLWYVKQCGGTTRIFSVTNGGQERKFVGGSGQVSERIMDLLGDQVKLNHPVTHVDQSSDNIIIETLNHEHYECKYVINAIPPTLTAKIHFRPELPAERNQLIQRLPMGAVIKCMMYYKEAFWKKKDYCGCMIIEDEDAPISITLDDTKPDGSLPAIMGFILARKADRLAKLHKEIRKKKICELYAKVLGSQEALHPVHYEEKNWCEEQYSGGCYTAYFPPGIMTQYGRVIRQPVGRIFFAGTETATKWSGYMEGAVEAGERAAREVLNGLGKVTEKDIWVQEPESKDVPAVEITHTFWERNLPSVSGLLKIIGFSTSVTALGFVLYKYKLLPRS

hMAO-B [4] = biological target: T6, hMAO-B (Homo sapiens, UniProt P27338); design: method as in PMID 28251489; conditions: cited from earlier work
T6 sequence (P27338 1-520): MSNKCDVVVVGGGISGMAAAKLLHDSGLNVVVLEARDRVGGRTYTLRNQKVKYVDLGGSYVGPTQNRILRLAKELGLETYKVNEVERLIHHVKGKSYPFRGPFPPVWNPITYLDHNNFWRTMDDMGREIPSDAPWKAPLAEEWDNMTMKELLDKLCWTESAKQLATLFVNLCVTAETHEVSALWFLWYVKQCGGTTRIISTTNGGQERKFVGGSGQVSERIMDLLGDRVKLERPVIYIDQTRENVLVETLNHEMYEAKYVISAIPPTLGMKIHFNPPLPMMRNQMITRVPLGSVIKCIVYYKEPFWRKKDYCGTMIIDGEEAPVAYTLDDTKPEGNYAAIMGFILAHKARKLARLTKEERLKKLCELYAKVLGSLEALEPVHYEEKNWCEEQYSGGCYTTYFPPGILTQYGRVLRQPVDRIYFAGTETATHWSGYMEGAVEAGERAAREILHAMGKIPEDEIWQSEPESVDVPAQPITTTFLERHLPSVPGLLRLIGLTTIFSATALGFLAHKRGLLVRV

[5] = design: method as in PMID 25996411; conditions: cited from earlier work
hD1 (DRD1) [6] = biological target: T3, hD1 (DRD1); test: cell-based; conditions: read-out: % Inhibition of control agonist response, hD1
hD3 (DRD3) [7] = biological target: T4, hD3 (DRD3); test: cell-based; conditions: for inhibition at 100 µM: read-out: % Inhibition of control agonist response, hD3
hD4 (DRD4) = biological target: T7, hD4 (DRD4) (Homo sapiens, UniProt P21917); conditions: for % Stimulation of control agonist response, hD4: agonist effect at 100 µM; for inhibition at 100 µM: read-out: % Inhibition of control agonist response, hD4
T7 sequence (P21917 1-419): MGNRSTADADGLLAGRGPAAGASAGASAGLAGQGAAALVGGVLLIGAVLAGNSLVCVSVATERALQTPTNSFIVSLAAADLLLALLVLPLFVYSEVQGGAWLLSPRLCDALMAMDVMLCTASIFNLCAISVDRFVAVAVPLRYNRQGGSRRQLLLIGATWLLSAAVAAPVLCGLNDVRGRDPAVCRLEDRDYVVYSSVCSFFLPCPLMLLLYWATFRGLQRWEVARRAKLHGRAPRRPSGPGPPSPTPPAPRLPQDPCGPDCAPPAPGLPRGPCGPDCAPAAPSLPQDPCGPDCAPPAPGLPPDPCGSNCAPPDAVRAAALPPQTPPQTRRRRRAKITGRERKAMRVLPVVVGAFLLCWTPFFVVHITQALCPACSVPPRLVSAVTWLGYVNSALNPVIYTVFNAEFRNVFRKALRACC

hMAO-A [8] = biological target: T5, hMAO-A; test: hMAO-A inhibition, chemiluminescent MAO-Glo assay and kinetic analysis; assay type: biochemical
hMAO-B [9] = biological target: T6, hMAO-B; test: hMAO-B inhibition, chemiluminescent MAO-Glo assay and kinetic analysis; assay type: biochemical
[10] = ratio of hMAO-A IC50/hMAO-B IC50
[11] = Kiu from secondary plot of 1/Vmaxapp versus concentration
[12] = Lineweaver-Burk plots, NC = noncompetitive

Chain of hNK1 (TACR1) (P25103 whole entry): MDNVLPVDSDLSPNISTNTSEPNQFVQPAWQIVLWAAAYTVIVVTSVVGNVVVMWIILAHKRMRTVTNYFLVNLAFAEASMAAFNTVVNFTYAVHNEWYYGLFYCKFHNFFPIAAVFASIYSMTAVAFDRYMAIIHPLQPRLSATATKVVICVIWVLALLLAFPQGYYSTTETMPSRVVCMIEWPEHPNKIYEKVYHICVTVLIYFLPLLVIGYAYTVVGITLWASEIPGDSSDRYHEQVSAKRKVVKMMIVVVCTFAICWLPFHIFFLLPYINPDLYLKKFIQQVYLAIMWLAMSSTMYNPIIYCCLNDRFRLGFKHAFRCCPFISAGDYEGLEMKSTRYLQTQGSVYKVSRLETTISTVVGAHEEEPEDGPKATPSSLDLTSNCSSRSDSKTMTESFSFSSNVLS
Chain of hV1A (AVPR1A) (P37288 whole entry): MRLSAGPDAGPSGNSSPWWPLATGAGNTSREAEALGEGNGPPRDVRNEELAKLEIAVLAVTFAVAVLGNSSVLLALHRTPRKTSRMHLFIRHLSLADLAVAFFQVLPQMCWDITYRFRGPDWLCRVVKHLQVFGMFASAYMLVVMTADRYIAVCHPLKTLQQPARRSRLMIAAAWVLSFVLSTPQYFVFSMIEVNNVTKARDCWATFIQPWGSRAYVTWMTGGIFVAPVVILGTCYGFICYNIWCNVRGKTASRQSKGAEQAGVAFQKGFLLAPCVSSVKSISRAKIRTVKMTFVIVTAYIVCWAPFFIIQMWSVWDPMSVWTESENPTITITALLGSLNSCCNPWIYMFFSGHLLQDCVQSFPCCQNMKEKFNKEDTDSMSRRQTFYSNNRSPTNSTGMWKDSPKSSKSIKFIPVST
T4 sequence (P35462 whole entry): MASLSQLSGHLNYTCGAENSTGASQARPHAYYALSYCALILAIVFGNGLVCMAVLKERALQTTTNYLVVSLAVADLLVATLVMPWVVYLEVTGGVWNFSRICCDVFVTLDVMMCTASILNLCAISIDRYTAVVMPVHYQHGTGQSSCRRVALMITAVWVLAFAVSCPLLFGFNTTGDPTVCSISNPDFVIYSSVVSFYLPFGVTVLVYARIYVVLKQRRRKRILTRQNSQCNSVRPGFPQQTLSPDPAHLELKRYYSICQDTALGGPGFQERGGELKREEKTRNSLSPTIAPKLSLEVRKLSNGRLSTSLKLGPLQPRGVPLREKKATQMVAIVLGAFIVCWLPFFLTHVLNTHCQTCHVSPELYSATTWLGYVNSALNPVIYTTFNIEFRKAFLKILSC
T3 sequence (P21728 whole entry): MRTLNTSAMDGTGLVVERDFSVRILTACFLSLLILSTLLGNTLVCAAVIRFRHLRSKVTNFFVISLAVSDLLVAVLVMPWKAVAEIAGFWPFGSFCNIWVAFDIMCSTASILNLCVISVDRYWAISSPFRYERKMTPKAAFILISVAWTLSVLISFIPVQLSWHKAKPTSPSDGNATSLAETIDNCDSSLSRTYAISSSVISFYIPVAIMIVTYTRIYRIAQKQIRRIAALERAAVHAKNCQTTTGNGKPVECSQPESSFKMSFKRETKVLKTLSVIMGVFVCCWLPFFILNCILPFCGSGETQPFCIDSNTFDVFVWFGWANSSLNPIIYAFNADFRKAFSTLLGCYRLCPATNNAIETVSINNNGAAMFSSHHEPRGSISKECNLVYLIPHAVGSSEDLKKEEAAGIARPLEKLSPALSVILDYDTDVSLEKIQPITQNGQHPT

| % Stimulation of control agonist response, hM5 (hM5 (CHRM5)) | inhibition at 100 µM (hM5 (CHRM5)) [%] | % Stimulation of control agonist response, hNK1 (hNK1 (TACR1)) | inhibition at 100 µM (hNK1 (TACR1)) [%] | % Stimulation of control agonist response, h5-HT1A (h5-HT1A (HTR1A)) | inhibition at 100 µM (h5-HT1A (HTR1A)) [%] | % Stimulation of control agonist response, hV1A (hV1A (AVPR1A)) | inhibition at 100 µM (hV1A (AVPR1A)) [%] | % Stimulation of control agonist response, hD1 (hD1 (DRD1) [1]) | % Stimulation of control agonist response, hD3 (hD3 (DRD3) [2]) | inhibition at 100 µM (hD1 (DRD1) [6]) [%] | EC50 (hD3 (DRD3) [7]) [µM] | inhibition at 100 µM (hD3 (DRD3) [7]) [%] | EC50 (hD4 (DRD4)) [µM] | % Stimulation of control agonist response, hD4 (hD4 (DRD4)) | inhibition at 100 µM (hD4 (DRD4)) [%] | SMILES | also measured |
| --- | --- | --- | --- | --- | --- | --- | --- | --- | --- | --- | --- | --- | --- | --- | --- | --- | --- |
| 7.60 ± 17.11 ^AB % | 19.6 | 54.70 ± 1.41 ^B % | 77.7 | 1.75 ± 0.64 ^A % | 76.8 | 64.20 ± 0.14 ^A % | 46.2 | 1.05 ± 0.21 ^A % | 81.10 ± 0.66 ^B % | 60.6 | 44.2 ± 3.25 | -2.5 | 34 ± 8.62 | 74.43 ± 6.37 ^B % | -5.35 | Oc1cc(O)cc(Oc2c(O)cc(O)c3c2Oc2c(O)cc(Oc4c(O)cc(Oc5c(O)cc(O)c6c5Oc5c(O)cc(O)cc5O6)cc4O)cc2O3)c1 [Dieckol, dieckol] | % Stimulation of control agonist response, hNK1 (hNK1 (TACR1); listed as dieckol): 54.70%; % Stimulation of control agonist response, hV1A (hV1A (AVPR1A); listed as dieckol): 64.20 ± 0.14% and 64.2%; % Stimulation of control agonist response, hD3 (hD3 (DRD3) [2]; listed as dieckol): 81.10 ± 0.66%; Ki (hMAO-A [3]): 20.3 µM; SI (selective index) (hMAO-A [3]; [10]): 0.26; IC50 (hMAO-A [3]; recombinant hMAO-A, obtained from the literature): 11.4 ± 1.06 µM; Ki (hMAO-B [4]): 18.5 µM; IC50 (hMAO-B [4]; recombinant hMAO-B, obtained from the literature): 43.4 ± 0.73 µM; BBB penetration [5]: effectively penetrate the BBB; % Stimulation of control agonist response, hD4 (hD4 (DRD4); listed as dieckol): 74.43 ± 6.37% |
| 29.20 ± 10.75 ^A % | 56 | 67.65 ± 9.26 ^A % | 88.2 | 1.65 ± 0.49 ^A % | 62.5 | 38.45 ± 7.14 ^B % | 52.9 | 0.25 ± 3.18 ^A % | 98.57 ± 2.14% and 98.57 ± 2.14 ^A % | 81.4 | 19.2 ± 0.48 | -15.2 | 23.5 ± 1.55 | 98.50 ± 12.50% and 98.50 ± 12.50 ^A % | -26.1 | Oc1cc(O)cc(Oc2c(O)cc(O)c3c2Oc2c(O)cc4oc5c(Oc6cc(O)cc(O)c6)c(O)cc(O)c5c4c2O3)c1 [PFF-A, phlorofucofuroeckol-A] | Ki (hMAO-A [8]; [11]): 5.18 µM; Inhibition type hMAO-A (hMAO-A [8]; [12]): noncompetitive; SI (selective index) (hMAO-A [8]; [10]): 1.89; IC50 (hMAO-A [8]; recombinant hMAO-A, mean ± SD, n = 3, read-out: IC50 hMAO-A): 9.22 ± 0.19 µM; Ki (hMAO-B [9]; [11]): 2.69 µM; Inhibition type hMAO-B (hMAO-B [9]; [12]): noncompetitive; IC50 (hMAO-B [9]; recombinant hMAO-B, mean ± SD, n = 3): 4.89 ± 0.32 µM |
